From patent US11771765B2, “Light augmented treatment method” (The Procter & Gamble Company, priority 2019, dated 2023)

Legend:
protoporphyrin IX (PPIX) [1] = experiment: Protoporphyrin IX levels in treated M. furfur cells by HPLC; type: cell-based
protoporphyrin IX (PPIX) [2] = experiment: as above; type: cell-based; conditions: for PPIX levels upon treatment: non-chelator antifungals, Table 11
Source text: PPIX absorb light in the 400 nm range, and when light is absorbed, PPIX transitions to an excited triplet state that can react with triplet oxygen to produce singlet oxygen or the excited porphyrin can generate ROS through single electron processes. These reactive species result in a loss of cell viability.
(§1) M. furfur cells are exposed to other antifungals that are not considered chelators (i.e. selenium sulfide (SeSx), Sulfur, Climbazole, and Terbinafine). After treatment, cells are then exposed to light, or not exposed to light. Both OD are measured to measure growth and PPIX levels are measured.

M. furfur cells = experiment: Non-chelator antifungals with or without light, M. furfur growth (Table 11); type: cell-based, Malassezia furfur; conditions: for effect of adding light on efficacy: non-chelator antifungals, OD values of Table 11
Experimental: as §1

M. furfur CBS 7982 = experiment: Fractional Inhibitor Concentration (FIC): antimicrobial plus 409 nm light on M. furfur growth; type: cell-based, Malassezia furfur; conditions: for growth, OD 600 nm: 27 h growth
Experimental: Fractional Inhibitor Concentration (FIC) is a conventional methodology for evaluating the interaction of two antimicrobial chemicals. […] In an embodiment of the present invention, FIC is used to determine combinatorial effects of one chemical and exposure to light on Malassezia growth and/or viability in an in vitro system.
• 1. M. furfur CBS 7982 cells are exposed to a varying concentrations of an antimicrobial active (e.g. ZPT, Piroctone Olamine) for a specified amount of time (e.g. 2 min to 3 hours). • 2. After exposure, the antimicrobial is washed away by centrifugation of the cells and a series of washes • 3. Cells are then exposed to light at a wavelength of 409 nm for varying lengths of time • 4. Cells are then allowed to grow up overnight (e.g. 17 h) to determine the impact of the treatment on viability and growth of the organism by measuring OD600 II. Data Analysis: • 1. Inhibition of growth is determined to be where the OD value obtained is <=50% of the untreated control • 2. The lowest concentration value of the antimicrobial agent which inhibits growth is determined • 3. Likewise, the shortest light exposure time is determined that gives growth inhibition • 4. Finally, the combination of the lowest concentration of the antimicrobial and the shortest light exposure time that provides growth inhibition is determined • 5. The FIC value is determined using the calculation below:
[formula] • 6. The combinatorial effect of the antimicrobial and light is classified according to the chart below: […]
(§2) M. furfur is incubated for one hour with varying concentrations of Piroctone Olamine. Cell pellets are collected by centrifugation so that most of the anti-fungal material has been removed. The cell pellet is suspended in PBS and 500 uL samples are distributed to four 12 well plates and treated with light (409 nm) for 1, 10 or 60 minutes or stored in the dark. Samples are then diluted into mDixon, and incubated for 16 h with subsequent growth measured by OD 600 nm.
as §2, with “Hinokitiol.” for “Piroctone Olamine.”, “27” for “16”, “nm. […]” for “nm.”

Compound: S=[Se]=S [SeSx, selenium sulfide]
- PPIX (protoporphyrin IX (PPIX) [1]; 0.4 ppm (Table 11)): 2.6 ng
- PPIX (protoporphyrin IX (PPIX) [1]; 0.8 ppm (Table 11)): 1.2 ng
- PPIX levels upon treatment (protoporphyrin IX (PPIX) [2]): PPIX levels do not change
- OD600 (M. furfur cells; 0.4 ppm, Dark): 3.31
- OD600 (M. furfur cells; 0.4 ppm, Light): 2.27
- OD600 (M. furfur cells; 0.8 ppm, Dark): 1.51
- OD600 (M. furfur cells; 0.8 ppm, Light): 1.44
- effect of adding light on efficacy (M. furfur cells): does not increase their efficacy

Compound: CC(C)c1cccc(=O)c(O)c1 [Hinokitiol]
- shortest light exposure time when applied in combination to give growth inhibition (M. furfur CBS 7982; 409 nm light, with the lowest inhibiting concentration): 1 min
- growth, OD 600 nm (M. furfur CBS 7982; Hinokitiol 3 ppm 1 h, 409 nm light 0 min): 8.3
- growth, OD 600 nm (M. furfur CBS 7982; Hinokitiol 3 ppm 1 h, 409 nm light 1 min): 7.9
- growth, OD 600 nm (M. furfur CBS 7982; Hinokitiol 3 ppm 1 h, 409 nm light 10 min): 4.6
- growth, OD 600 nm (M. furfur CBS 7982; Hinokitiol 3 ppm 1 h, 409 nm light 60 min): 4.5
- growth, OD 600 nm (M. furfur CBS 7982; Hinokitiol 6 ppm 1 h, 409 nm light 0 min): 8.5
- growth, OD 600 nm (M. furfur CBS 7982; Hinokitiol 6 ppm 1 h, 409 nm light 1 min): 1.8
- growth, OD 600 nm (M. furfur CBS 7982; Hinokitiol 6 ppm 1 h, 409 nm light 10 min): 0.3
- growth, OD 600 nm (M. furfur CBS 7982; Hinokitiol 6 ppm 1 h, 409 nm light 60 min): 0.4
- growth, OD 600 nm (M. furfur CBS 7982; Hinokitiol 12 ppm 1 h, 409 nm light 0 min): 8.6
- growth, OD 600 nm (M. furfur CBS 7982; Hinokitiol 12 ppm 1 h, 409 nm light 1 min): 2.3
- growth, OD 600 nm (M. furfur CBS 7982; Hinokitiol 12 ppm 1 h, 409 nm light 10 min): 0.2
- growth, OD 600 nm (M. furfur CBS 7982; Hinokitiol 12 ppm 1 h, 409 nm light 60 min): 0.3
- growth, OD 600 nm (M. furfur CBS 7982; Hinokitiol 24 ppm 1 h, 409 nm light 0 min): 6.1
- growth, OD 600 nm (M. furfur CBS 7982; Hinokitiol 24 ppm 1 h, 409 nm light 1 min): 0.6
- growth, OD 600 nm (M. furfur CBS 7982; Hinokitiol 24 ppm 1 h, 409 nm light 10 min): 0.2
- growth, OD 600 nm (M. furfur CBS 7982; Hinokitiol 24 ppm 1 h, 409 nm light 60 min): 0.2
- growth, OD 600 nm (M. furfur CBS 7982; Hinokitiol 48 ppm 1 h, 409 nm light 0 min): 5.7
- growth, OD 600 nm (M. furfur CBS 7982; Hinokitiol 48 ppm 1 h, 409 nm light 1 min): 0.2
- growth, OD 600 nm (M. furfur CBS 7982; Hinokitiol 48 ppm 1 h, 409 nm light 10 min): 0.1
- growth, OD 600 nm (M. furfur CBS 7982; Hinokitiol 48 ppm 1 h, 409 nm light 60 min): 0.1
- growth, OD 600 nm (M. furfur CBS 7982; Hinokitiol 96 ppm 1 h, 409 nm light 0 min): 5.9
- growth, OD 600 nm (M. furfur CBS 7982; Hinokitiol 96 ppm 1 h, 409 nm light 1 min): 0.3
- growth, OD 600 nm (M. furfur CBS 7982; Hinokitiol 96 ppm 1 h, 409 nm light 10 min): 0.0
- growth, OD 600 nm (M. furfur CBS 7982; Hinokitiol 96 ppm 1 h, 409 nm light 60 min): 0.0
- lowest concentration to give growth inhibition (M. furfur CBS 7982; antimicrobial alone, no light, inhibition = OD <=50% of untreated control): > 96 ppm
- FIC value (M. furfur CBS 7982; antimicrobial plus 409 nm light): 0.08
- Combinatorial Effect (M. furfur CBS 7982; antimicrobial plus 409 nm light, classified by FIC value): synergistic
- lowest concentration when applied in combination with light to give growth inhibition (M. furfur CBS 7982; with 409 nm light, inhibition = OD <=50% of untreated control): 6 ppm

Compound: CC(C)(C)C(=O)C(Oc1ccc(Cl)cc1)n1ccnc1 (stereo not shown) [Climbazole]
- PPIX (protoporphyrin IX (PPIX) [2]; 1 ppm (Table 11, second part)): 4.5 ng
- PPIX levels upon treatment (protoporphyrin IX (PPIX) [2]): PPIX levels do not change
- OD600 (M. furfur cells; 1 ppm, Dark (second part)): 11.9
- OD600 (M. furfur cells; 1 ppm, Light (second part)): 10.2
- effect of adding light on efficacy (M. furfur cells): does not increase their efficacy

Compound: CN(C/C=C/C#CC(C)(C)C)Cc1cccc2ccccc12 [Terbinafine]
- PPIX (protoporphyrin IX (PPIX) [2]; 0.5 ppm (Table 11, second part)): 6.7 ng
- PPIX levels upon treatment (protoporphyrin IX (PPIX) [2]): PPIX levels do not change
- OD600 (M. furfur cells; 0.5 ppm, Dark (second part)): 12.5
- OD600 (M. furfur cells; 0.5 ppm, Light (second part)): 10.6
- effect of adding light on efficacy (M. furfur cells): does not increase their efficacy

Compound: S1SSSSSSS1 [Sulfur]
- PPIX (protoporphyrin IX (PPIX) [2]; 8 ppm (Table 11)): 1.6 ng
- PPIX levels upon treatment (protoporphyrin IX (PPIX) [2]): PPIX levels do not change
- OD600 (M. furfur cells; 8 ppm, Dark): 4.52
- OD600 (M. furfur cells; 8 ppm, Light): 3.62
- effect of adding light on efficacy (M. furfur cells): does not increase their efficacy
